Experimental data reported in patent US12702665B2, “ExoVII inhibitor and quinolone antibiotic combination useful for treating bacterial infection” (The United States of America, As Represented by the …, priority 2020, dated 2026).

Experiments:
[1] = tested on: E. coli strains carrying the gyrA-S83L mutation; assay: MIC of ciprofloxacin (MIC test strips), quinolone-resistant gyrA-S83L strains; assay type: cell-based
[2] = tested on: E. coli pgyrAHis transformants deficient in ExoVII; assay: Spotting assay on LB plates containing quinolones; assay type: cell-based; conditions: ΔxseA or ΔxseB pgyrAHis transformants vs wild-type
Source text: FIG. 8A, FIG. 8B, and FIG. 8C. Expression of a functional GyrAHis has no impact on sensitivities of E. coli strains to quinolones. FIG. 8A. Transformants of a single-copy plasmid bearing the gyrA gene including its endogenous promoter and a C-terminal His-tag (pgyrAHis) were established in either the wild-type, ΔxseA or ΔxseB strains. […] The asterisk denotes a non-specific band. FIG. 8B. Immunoblotting of the same transformants as in FIG. 8A, probed with anti-GyrA antibody (Abcam). FIG. 8C. […] Two technical replicates are shown.
Cell killing assays were carried out as previously described. Briefly, transformants harboring pBAD/Thio, pYtopA or pYtopA-R327W were grown in LB with 2% glucose and 50 μg/mL carbenicillin overnight and diluted 1:100 in LB with 50 μg/mL carbenicillin and grown to OD600 of 0.4. YTop1 or YTop1-R327W were induced by addition of 0.2% arabinose for 0.5-2 hrs. Post-induction cultures were then serially diluted and spotted onto LB plates with 2% glucose and 50 μg/mL carbenicillin and incubated at 37° C. overnight. Alternatively, exponentially growing transformants were serially diluted as indicated and spotted on LB plates containing 50 μg/mL carbenicillin and indicated concentrations of arabinose and incubated at 37° C. overnight.

[3] = molecular target: T1, ExoVII (Escherichia coli, UniProt P04994); assay: In-vitro ExoVII cleavage assay (IC50 determination); assay type: biochemical
T1 construct: purchased ThermoFisher or NEB
T1 sequence (P04994 whole entry): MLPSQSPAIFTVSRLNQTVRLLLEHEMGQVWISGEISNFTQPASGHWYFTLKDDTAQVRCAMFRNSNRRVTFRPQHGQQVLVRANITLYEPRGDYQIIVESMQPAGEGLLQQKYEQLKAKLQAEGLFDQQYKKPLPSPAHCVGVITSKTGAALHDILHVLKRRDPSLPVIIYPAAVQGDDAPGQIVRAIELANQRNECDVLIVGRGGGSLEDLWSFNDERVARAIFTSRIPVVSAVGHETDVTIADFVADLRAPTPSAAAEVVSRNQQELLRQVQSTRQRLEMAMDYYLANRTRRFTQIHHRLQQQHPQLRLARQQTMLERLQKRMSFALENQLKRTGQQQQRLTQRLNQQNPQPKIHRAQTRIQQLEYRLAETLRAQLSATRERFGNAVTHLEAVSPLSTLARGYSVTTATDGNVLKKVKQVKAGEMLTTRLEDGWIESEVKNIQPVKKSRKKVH
T1 sequence (P0A8G9 whole entry, further chain): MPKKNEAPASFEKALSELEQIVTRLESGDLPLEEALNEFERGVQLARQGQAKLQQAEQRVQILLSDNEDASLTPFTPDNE
Experimental: FIG. 13A, FIG. 13B, FIG. 13C, and FIG. 13D. CPID is a specific ExoVII inhibitor. FIG. 13A. […] FIG. 13B. […] FIG. 13C. […] Representative gel image and quantification are shown. IC50 value was averaged from 5 independent experiments. FIG. 13D. CPID is not toxic to HEK293 or MEF cells as determined by relative confluency of seeded cells after 72-hour treatment at the indicated CPID concentration.
ExoVII reactions were incubated at 37° C. for 1 or 2 hrs followed by inactivation at 55° C. for 30 mins before terminated by addition of 20 μL formamide gel loading buffer (96% (v/v) formamide, 10 mM ethylenediaminetetraacetic acid, 1% (w/v) xylene cyanol and 1% (w/v) bromophenol blue). For IC50 determination, ExoVII was preincubated with the inhibitor at 25° C. for 5 mins before addition of equal volume of DNA solution and the reaction continued for another 20-30 mins. The 10 μL reaction contained 0.025 U/μL ExoVII, 20-100 nM internally ratio-labeled DNA substrate, and indicated inhibitor concentration in buffer with 50 mM potassium acetate, 20 mM trisacetate (pH=7.9), 10 mM magnesium acetate, 1 mM DTT and 10% (v/v) DMSO. The percentage of products in the presence of inhibitor was normalized to that of control reaction without any inhibitors, and resulting plot was fitted to a nonlinear regression function in Prism. DNA gyrase was purified as previously described.

[4] = tested on: WT-pgyrA-S83L; assay: Synergy with ciprofloxacin in quinolone-resistant strain (OD600 growth); assay type: cell-based, E. coli
Experimental: (§1) OD600 was measured at the end of 4-hr incubation at 37° C. shaking at 225 rpm and cell densities were normalized to samples without any drug treatment. Toxicity of compounds were measured by treating either HEK293 or MEF (1000 cells in 96-well plates seeded 24-hr prior) with indicated concentrations of ExoVII inhibitor for 72 hours. The samples were imaged with a Cytation 5 (BioTek) and the confluency of each well were normalized to untreated samples.

[5] = tested on: ΔxseA-pgyrA-S83L; assay: Synergy with ciprofloxacin in quinolone-resistant ExoVII-deficient strain (OD600 growth); assay type: cell-based, E. coli
Experimental: as §1

[6] = tested on: ΔxseB-pgyrA-S83L; assay: as above; assay type: cell-based, E. coli
Experimental: as §1

[7] = tested on: Staphylococcus aureus strain HG003; assay: Synergy with ciprofloxacin in Staphylococcus aureus cultures (OD600 growth); assay type: cell-based; conditions: gram-positive
Experimental: as §1

| Structure (SMILES) | Decrease in ciprofloxacin MIC on inactivating either subunit of ExoVII ([1]; gyrA-S83L background) | Increase in ciprofloxacin MIC by gyrA-S83L ([1]; gyrA-S83L vs wild-type gyrA) [fold] | Sensitivity of ExoVII-deficient transformants to quinolones [2] | IC50 [3] [nM] | Synergy with ciprofloxacin [4] | Synergy with ciprofloxacin [5] | Synergy with ciprofloxacin [6] | Synergy with ciprofloxacin [7] |
| --- | --- | --- | --- | --- | --- | --- | --- | --- |
| O=C(O)c1cn(C2CC2)c2cc(N3CCNCC3)c(F)cc2c1=O [ciprofloxacin] | ~ 2 fold | 10 | hypersensitivity |  |  |  |  |  |
| CCn1cc(C(=O)O)c(=O)c2ccc(C)nc21 [nalidixic acid] |  |  | hypersensitivity |  |  |  |  |  |
| O=C1Cc2ccc(-c3cccc(Cl)c3)cc2C(=O)N1 [CPID, 7-(3-chlorophenyl)-1,3(2H,4H)-Isoquinolinedione] |  |  |  | 2430 | synergistic | not synergistic | not synergistic | clear synergy |
